Source: patent US8906829B2, “Synergistic algicidal compositions including hydrazone derivatives and copper” (Dow AgroSciences LLC, priority 2010, dated 2014)

Legend:
C. reinhardtii CC-1928 = test: Effect of copper on activity of hydrazones: in vitro growth inhibition of C. reinhardtii in TAP Cu minus / TAP Cu plus medium (Example 10); assay type: cell-based, Chlamydomonas reinhardtii; conditions: for inhibition of growth at 1 µg/mL: Chlamydomonas reinhardtii, TAP Cu minus medium, read-out: % Inhn. Minus Copper Observed; for inhibition of growth at 1 µg/mL / % Inhn. Plus Copper Observed: test compound 1 μg/mL, 48 h; for % Inhn. Plus Copper Observed: TAP Cu plus medium (CuCl2); for % Inhn. by copper chloride alone: CuCl2, 10 μM, TAP Cu plus vs TAP Cu minus without test compound, across experiments
Method in brief: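 Washed cells (suspension 2×10^5 spores per mL) added to compound at 1 μg/mL in Chelex-treated TAP Cu minus or TAP Cu plus (20 μM CuCl2). After 48 h at 27 °C, growth read by light scattering; % inhibition vs compound-free wells, plus-Cu predicted values by Colby formula from minus-Cu data.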

C. reinhardtii = test: Growth inhibition of C. reinhardtii by hydrazones and isolated metal-hydrazone complexes, TAP Cu minus medium (Example 12); assay type: cell-based, Chlamydomonas reinhardtii; conditions: for inhibition of growth at 1 µg/mL: Chlamydomonas reinhardtii, parent hydrazone 1 μg/mL, read-out: Hydrazone % Inhn.; for Complex % Inhn.: isolated metal complex 1 μg/mL
Description: In vitro toxicity assays against C. reinhardtii CC-1928 (wild type mt+137c green in dark subclone) obtained from the Chlamydomonas Resource Center at Duke University were conducted using TAP liquid growth medium described by Gorman and Levine Proc. Natl. Acad. Sci. USA 1965, 54, 1665-1669 except that CuSO4.5H2O, normally included as a component of Hutner's trace element stock solution (Hutner et al. Proc. Am. Philos. Soc. 1950, 94, 152-170), was omitted. The TAP medium lacking Cu (TAP Cu minus) was prepared by adding 400 mg NH4Cl, 10 mL of 100× Tris-Acetate (242 g Tris-base and 100 mL glacial acetic acid in 1000 mL milli Q water), and 8.3 mL of 120.5× phosphate buffer (14.34 g K2HPO4 and 7.26 g KH2PO4 in 1000 mL milli Q water) to milli Q water to make a total volume of 1 liter. The medium was treated with 0.5 g Chelex 100 resin (Bio-Rad Analytical grade, 50-100 mesh, sodium form, cat#142-2822) by stirring at room temperature for 1 hour. 900 mL were decanted and 45.9 mg of CaCl2.2H2O, 90 mg of MgSO4.7H2O and 0.9 mL Hutner's trace elements lacking CuSO4.5H2O were added and the solution was filter-sterilized. Medium containing copper (TAP Cu plus) was prepared by adding CuCl2.2H2O to the TAP Cu minus medium at 20 μM. Test compounds were dissolved in dimethylsulfoxide (DMSO) at 2 mg/mL then dilutions in TAP Cu minus and TAP Cu plus media were prepared in sterilized microcentrifuge tubes at 2 μg/mL. 100 μL aliquots of diluted compound were dispensed into flat-bottomed 96-well microtiter plates. C. reinhardtii was maintained under 12 h of light on TAP agar plates at 18° C. A loopful of cells was added to 50 mL of TAP Cu minus medium and the culture incubated with shaking at 200 rpm at 27° C. for 24 h. The culture (10 to 20 mL aliquot) was centrifuged in a bench centrifuge at 2000 rpm for 2 min. The resulting cell pellet was resuspended in 5 mL sterile milli Q water (which had been treated with Chelex 100 resin using 0.5 g resin per liter of water by stirring at room temperature for 1 h), and recentrifuged. The cells were resuspended in TAP Cu minus medium, and the suspension adjusted to 2×10^5 spores per mL. Microtiter plates containing compounds as described above were inoculated with 100 μL of this cell suspension and the plates incubated at 27° C. for 48 h before assessing algal growth by measuring light scattering in a NepheloStar plate-reader. Growth inhibition was determined by comparing growth in the presence of test compound with growth in control wells lacking test compound. Hydrazones and their isolated metal complexes were compared with respect to their in vitro activity toward C. reinhardtii and the cyanobacterium (blue-green alga) Synechocystis sp. strain 6803. Metal complexes of hydrazones were prepared by precipitation from ethanol with various metal salts at 1:1, 2:1 or 3:1 molar ratios, as described in general by Ainscough, Brodie, Dobbs, Ranford, and Waters (Inorganica Chimica Acta 1998, 267, 27-38, which is expressly incorporated by reference herein). In vitro assays against C. reinhardtii were conducted as described in Example 10 using TAP Cu minus medium. Growth inhibition was determined by comparing growth in the presence of test compound with growth in control wells lacking test compound. Results for growth inhibition of C. reinhardtii by hydrazones and corresponding isolated metal complexes (each at 1 μg/mL) are shown in Table 6.

| SMILES | inhibition of growth at 1 µg/mL (C. reinhardtii CC-1928) [%] | % Inhn. Plus Copper Observed (C. reinhardtii CC-1928) [%] | inhibition of growth at 1 µg/mL (C. reinhardtii) [%] | Complex % Inhn. (C. reinhardtii) [%] | % Inhn. by copper chloride alone (C. reinhardtii CC-1928) [%] | % Inhn. by copper chloride alone (C. reinhardtii CC-1928; listed as Copper chloride) |
| --- | --- | --- | --- | --- | --- | --- |
| O=C(N/N=C/c1cc(Cl)cc(Cl)c1O)c1ccccc1 [Compound 1] | 16 | 96 | 16 | – | – | – |
| C/C(=N\NC(=O)c1ccccc1)c1cc(Cl)cc(Cl)c1O [Compound 6] | 13 | 98 | 13 | – | – | – |
| O=C(N/N=C/c1cc(Cl)cc(Cl)c1O)c1ccccc1O [Compound 7] | 29 | 94 | 29 | – | – | – |
| C/C(=N\NC(=O)c1ccc(Cl)cc1)c1cc(Cl)cc(Cl)c1O [Compound 12] | 4 | 96 | 4 | – | – | – |
| O=C(N/N=C/c1cc(Cl)cc(Br)c1O)c1ccccc1 [Compound 14] | 6 | 97 | 6 | – | – | – |
| O=C(N/N=C/c1cc(Cl)cc(Br)c1O)c1ccc(Cl)cc1 [Compound 15] | 11 | 97 | 11 | – | – | – |
| O=C(N/N=C/c1cc(Cl)cc(Br)c1O)c1ccccc1O [Compound 18] | 13 | 95 | 13 | – | – | – |
| O=C(N/N=C/c1ccc(Cl)c(Cl)c1O)c1ccccc1 [Compound 21] | 6 | 94 | 6 | – | – | – |
| C/C(=N\NC(=O)c1cccc(C)c1)c1cc(Cl)cc(Cl)c1O [Compound 25, 3-methyl-benzoic acid [1-(3,5-dichloro-2-hydroxyphenyl)-ethylidene]-hydrazide] | 33 | 95 | 33 | – | – | – |
| C/C(=N\NC(=O)c1ccc(C)cc1)c1cc(Cl)cc(Cl)c1O [Compound 26] | 5 | 94 | – | – | – | – |
| O=C(N/N=C/c1cc(Cl)cc(C(F)(F)F)c1O)c1ccccc1 [Compound 27] | 30 | 96 | 30 | – | – | – |
| O=C(N/N=C/c1cc(C(F)(F)F)cc(C(F)(F)F)c1O)c1ccc(Cl)cc1 [Compound 32] | 21 | 97 | 21 | – | – | – |
| O=C(N/N=C/c1c(Cl)ccc(Cl)c1O)c1ccc(Cl)cc1 [Compound 45] | 9 | 96 | 9 | – | – | – |
| O=C(N/N=C/c1cccc(Cl)c1O)c1ccc(Cl)cc1 [Compound 52] | -4 | 88 | -4 | – | – | – |
| O=C(N/N=C/c1c(C(F)(F)F)ccc(Cl)c1O)c1ccc(Cl)cc1 [Compound 56] | 11 | 97 | 11 | – | – | – |
| Cc1ccccc1C(=O)N/N=C/c1cc(Cl)cc(Cl)c1O [Compound 63] | -18 | 93 | -18 | – | – | – |
| CC(=O)[O-].CC(=O)[O-].O=C(N/N=C/c1cc(Cl)cc(Cl)c1O)c1ccccc1.[Cu+2] [Compound 72] | – | – | – | 96 | – | – |
| CC(=O)[O-].CC(=O)[O-].O=C(N/N=C/c1cc(Cl)cc(Cl)c1O)c1ccccc1.O=C(N/N=C/c1cc(Cl)cc(Cl)c1O)c1ccccc1.[Cu+2] [Compound 73] | – | – | – | 96 | – | – |
| O=C(N/N=C/c1cc(Cl)cc(Cl)c1O)c1ccccc1.O=C(N/N=C/c1cc(Cl)cc(Cl)c1O)c1ccccc1.O=S(=O)([O-])[O-].[Cu+2] [Compound 74] | – | – | – | 96 | – | – |
| O=C(N/N=C/c1cc(Cl)cc(Cl)c1O)c1ccccc1.[Cl-].[Cl-].[Cu+2] [Compound 75] | – | – | – | 95 | – | – |
| O=C(N/N=C/c1cc(Cl)cc(Cl)c1O)c1ccccc1.O=C(N/N=C/c1cc(Cl)cc(Cl)c1O)c1ccccc1.[Cl-].[Cl-].[Cu+2] [Compound 76] | – | – | – | 75 | – | – |
| O=C(N/N=C/c1cc(Cl)cc(Cl)c1O)c1ccccc1.O=C(N/N=C/c1cc(Cl)cc(Cl)c1O)c1ccccc1.[Cl-].[Cl-].[Mn+2] [Compound 77] | – | – | – | −1 | – | – |
| O=C(NN=Cc1cc(Cl)cc(Cl)c1O)c1ccccc1.O=C(NN=Cc1cc(Cl)cc(Cl)c1O)c1ccccc1.[Cl-].[Cl-].[Zn+2] [Compound 78] | – | – | – | −5 | – | – |
| [Cl][Cu][Cl] [CuCl2, Copper chloride, reference compound] | – | – | – | – | −11.7 ± 6.0 | slight enhancement of growth |
